Columns and labels:
Assay type in all cases: in vivo
[1] = test system: morningglory (Ipomoea coccinea); assay: Test C greenhouse herbicide test, pre- and postemergence
Source text: (§1) Seeds of plant species selected from blackgrass (Alopecurus myosuroides), ryegrass, Italian (Italian ryegrass, Lolium multiflorum), wheat (winter wheat, Triticum aestivum), galium (catchweed bedstraw, Galium aparine), corn (Zea mays), large crabgrass, large (large crabgrass, Digitaria sanguinalis), foxtail, giant (giant foxtail, Setaria faberii), johnsongrass (Sorghum halepense), lambsquarters (Chenopodium album), morningglory (Ipomoea coccinea), nutsedge, yellow (yellow nutsedge, Cyperus esculentus), pigweed (Amaranthus retroflexus), ragweed (common ragweed, Ambrosia elatior), soybean (Glycine max), barnyardgrass (Echinochloa crus-galli), oilseed rape (Brassica napus), waterhemp (common waterhemp, Amaranthus rudis), and velvetleaf (Abutilon theophrasti) were planted into a blend of loam soil and sand and treated preemergence with test chemicals formulated in a non-phytotoxic solvent mixture which included a surfactant.
(§2) At the same time, plants selected from these crop and weed species and also chickweed (common chickweed, Stellaria media), kochia (Kochia scoparia), and oat, wild (wild oat, Avena fatua), were planted in pots containing Redi-Earth® planting medium (Scotts Company, 14111 Scottslawn Road, Marysville, Ohio 43041) comprising spaghnum peat moss, vermiculite, wetting agent and starter nutrients and treated with postemergence applications of test chemicals formulated in the same manner. Plants ranged in height from 2 to 18 cm (1- to 4-leaf stage) for postemergence treatments. Treated plants and controls were maintained in a greenhouse for 13 to 15 d, after which time all species were compared to controls and visually evaluated. Plant response ratings, summarized in Table C, are based on a scale of 0 to 100 where 0 is no effect and 100 is complete control. A dash (-) response means no test result.

[2] = test system: lambsquarters (Chenopodium album); assay: as above
Source text: as §1, §2

[3] = test system: pigweed (Amaranthus retroflexus); assay: as above
Source text: as §1, §2

[4] = test system: waterhemp (common waterhemp, Amaranthus rudis); assay: as above
Source text: as §1, §2

[5] = test system: ragweed (common ragweed, Ambrosia elatior); assay: as above
Source text: as §1, §2

[6] = test system: oilseed rape (Brassica napus); assay: as above
Source text: as §1, §2

[7] = test system: galium (catchweed bedstraw, Galium aparine); assay: Test A greenhouse herbicide test, postemergence; settings: for Plant response rating, Galium: 125 g ai/ha, visual rating after approx. 10 d, 0 to 100 scale (0 no effect, 100 complete control); for Galium plant response rating: 500 g ai/ha, 0 to 100 scale, 0 is no effect, 100 is complete control
In short: (§3)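 Plants grown in loam soil/sand blend pots were treated postemergence at 2 to 10 cm height, one- to two-leaf stage, with formulated test chemicals. After approximately 10 d in a greenhouse, injury was rated visually against untreated controls on a 0 to 100 scale (0 no effect, 100 complete control).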

[8] = test system: blackgrass (Alopecurus myosuroides); assay: Test A greenhouse herbicide test, postemergence; settings: for Plant response rating, Blackgrass: 125 g ai/ha, visual rating after approx. 10 d, 0 to 100 scale (0 no effect, 100 complete control); for Blackgrass plant response rating: 500 g ai/ha, 0 to 100 scale, 0 is no effect, 100 is complete control
In short: as §3

[9] = test system: pigweed (Amaranthus retroflexus); assay: Test A greenhouse herbicide test, pre- and postemergence
In short: (§4)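 Seeds sown in loam–sand blend got a preemergence directed soil spray of compound in non-phytotoxic solvent with surfactant. Postemergence treatment was given at 2–10 cm, one- to two-leaf stage. After ~10 d in greenhouse, injury was rated visually vs untreated controls, 0 (no effect) to 100 (complete control).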

[10] = test system: wheat (Triticum aestivum); assay: as above; settings: Postemergence; for Plant response rating, Wheat: 125 g ai/ha, 0 to 100 scale where 0 is no effect and 100 is complete control; for Wheat plant response rating: 500 g ai/ha, 0 to 100 scale, 0 is no effect, 100 is complete control
In short: as §4

[11] = test system: ryegrass, Italian (Italian ryegrass, Lolium multiflorum); assay: as above
In short: as §4

[12] = Postemergence, 31 g ai/ha, 0 to 100 scale (0 no effect, 100 complete control)
[13] = Postemergence, 125 g ai/ha, scale 0 to 100, 0 is no effect, 100 is complete control
[14] = Postemergence, 250 g ai/ha, scale 0 to 100, 0 no effect, 100 complete control, 13 to 15 d
[15] = Preemergence, 31 g ai/ha, scale 0 to 100, 0 is no effect, 100 is complete control
[16] = Preemergence, 62 g ai/ha, scale 0 to 100, 0 is no effect, 100 is complete control
[17] = Preemergence, 125 g ai/ha, scale 0 to 100, 0 is no effect, 100 is complete control
[18] = Preemergence, 250 g ai/ha, scale 0 to 100, 0 no effect, 100 complete control
[19] = postemergence, 62 g ai/ha, scale 0 to 100, 0 no effect, 100 complete control
[20] = Postemergence, 125 g ai/ha, visual rating after approx. 10 d, 0 to 100 scale (0 no effect, 100 complete control)
[21] = Postemergence, 500 g ai/ha, 0 to 100 scale, 0 is no effect, 100 is complete control
[22] = Preemergence, 125 g ai/ha, 0 to 100 scale where 0 is no effect and 100 is complete control
[23] = Preemergence, 500 g ai/ha, 0 to 100 scale, 0 no effect, 100 complete control
[24] = Postemergence, 125 g ai/ha, 0 to 100 scale where 0 is no effect and 100 is complete control
[25] = Postemergence, 8 g ai/ha, scale 0 to 100 (0 no effect, 100 complete control)
[26] = Postemergence, 16 g ai/ha, scale 0 to 100 (0 no effect, 100 complete control)
[27] = Preemergence, 16 g ai/ha, scale 0 to 100, 0 is no effect, 100 is complete control

Compound: Cc1cc2ccccc2c(-c2c(O)c(C)nn(C)c2=O)c1C [Compound 34]
- Morningglory plant response rating [1, 12]: 85
- Plant response rating, Morningglory [1, 13]: 95
- Plant response rating, Morningglory [1, 14]: 98
- Plant response rating, Morningglory [1, 15]: 70
- Plant response rating, Morningglory [1, 16]: 80
- Plant response rating, Morningglory [1, 17]: 85
- Morningglory plant response rating [1, 18]: 95
- Morningglory plant response rating [1, 19]: 98
- Lambsquarters plant response rating [2, 12]: 90
- Plant response rating, Lambsquarters [2, 13]: 95
- Plant response rating, Lambsquarters [2, 14]: 100
- Plant response rating, Lambsquarters [2, 15]: 80
- Plant response rating, Lambsquarters [2, 16]: 90
- Plant response rating, Lambsquarters [2, 17]: 80
- Lambsquarters plant response rating [2, 18]: 75
- Lambsquarters plant response rating [2, 19]: 90
- Pigweed plant response rating [3, 12]: 90
- Plant response rating, Pigweed [3, 13]: 80
- Plant response rating, Pigweed [3, 14]: 98
- Plant response rating, Pigweed [3, 15]: 100
- Plant response rating, Pigweed [3, 16]: 100
- Plant response rating, Pigweed [3, 17]: 100
- Pigweed plant response rating [3, 18]: 100
- Pigweed plant response rating [3, 19]: 85
- Waterhemp plant response rating [4, 12]: 85
- Plant response rating, Waterhemp [4, 13]: 90
- Plant response rating, Waterhemp [4, 14]: 98
- Plant response rating, Waterhemp [4, 16]: 100
- Plant response rating, Waterhemp [4, 17]: 100
- Waterhemp plant response rating [4, 18]: 100
- Waterhemp plant response rating [4, 19]: 85
- Ragweed plant response rating [5, 12]: 85
- Plant response rating, Ragweed [5, 13]: 95
- Plant response rating, Ragweed [5, 14]: 95
- Plant response rating, Ragweed [5, 15]: 80
- Plant response rating, Ragweed [5, 16]: 80
- Plant response rating, Ragweed [5, 17]: 90
- Ragweed plant response rating [5, 18]: 95
- Ragweed plant response rating [5, 19]: 98
- Oilseed Rape plant response rating [6, 12]: 30
- Plant response rating, Oilseed Rape [6, 13]: 50
- Plant response rating, Oilseed Rape [6, 14]: 20
- Plant response rating, Oilseed Rape [6, 15]: 10
- Plant response rating, Oilseed Rape [6, 16]: 25
- Plant response rating, Oilseed Rape [6, 17]: 90
- Oilseed Rape plant response rating [6, 18]: 90
- Oilseed Rape plant response rating [6, 19]: 30
- Plant response rating, Galium [7]: 90
- Galium plant response rating [7]: 100
- Plant response rating, Blackgrass [8]: 80
- Blackgrass plant response rating [8]: 90
- Plant response rating, Pigweed [9, 20]: 90
- Pigweed plant response rating [9, 21]: 90
- Pigweed plant response rating [9, 22]: 90
- Plant response rating, Pigweed [9, 23]: 100
- Plant response rating, Wheat [10]: 20
- Wheat plant response rating [10]: 40
- Plant response rating, Ryegrass, Italian [11, 24]: 100
- Ryegrass, Italian plant response rating [11, 21]: 100
- Ryegrass, Italian plant response rating [11, 22]: 100
- Plant response rating, Ryegrass, Italian [11, 23]: 100

Compound: Cc1nn(C)c(=O)c(-c2c(C)sc3c(C)cc(Cl)cc23)c1O [Compound 35]
- Plant response rating, Morningglory [1, 25]: 100
- Plant response rating, Morningglory [1, 26]: 100
- Morningglory plant response rating [1, 12]: 100
- Plant response rating, Morningglory [1, 27]: 25
- Plant response rating, Morningglory [1, 15]: 25
- Plant response rating, Morningglory [1, 16]: 98
- Morningglory plant response rating [1, 19]: 100
- Plant response rating, Lambsquarters [2, 25]: 35
- Plant response rating, Lambsquarters [2, 26]: 75
- Lambsquarters plant response rating [2, 12]: 80
- Plant response rating, Lambsquarters [2, 27]: 5
- Plant response rating, Lambsquarters [2, 15]: 20
- Plant response rating, Lambsquarters [2, 16]: 100
- Lambsquarters plant response rating [2, 19]: 70
- Plant response rating, Pigweed [3, 25]: 35
- Plant response rating, Pigweed [3, 26]: 25
- Pigweed plant response rating [3, 12]: 60
- Plant response rating, Pigweed [3, 27]: 75
- Plant response rating, Pigweed [3, 15]: 75
- Plant response rating, Pigweed [3, 16]: 80
- Pigweed plant response rating [3, 19]: 55
- Plant response rating, Waterhemp [4, 25]: 0
- Plant response rating, Waterhemp [4, 26]: 30
- Waterhemp plant response rating [4, 12]: 25
- Plant response rating, Waterhemp [4, 27]: 40
- Plant response rating, Waterhemp [4, 15]: 40
- Plant response rating, Waterhemp [4, 16]: 50
- Waterhemp plant response rating [4, 19]: 45
- Plant response rating, Ragweed [5, 25]: 0
- Plant response rating, Ragweed [5, 26]: 0
- Ragweed plant response rating [5, 12]: 25
- Plant response rating, Ragweed [5, 27]: 0
- Plant response rating, Ragweed [5, 15]: 5
- Plant response rating, Ragweed [5, 16]: 40
- Ragweed plant response rating [5, 19]: 40
- Plant response rating, Oilseed Rape [6, 25]: 0
- Plant response rating, Oilseed Rape [6, 26]: 0
- Plant response rating, Oilseed Rape [6, 27]: 5
- Plant response rating, Oilseed Rape [6, 15]: 90
- Plant response rating, Oilseed Rape [6, 16]: 90
- Oilseed Rape plant response rating [6, 19]: 10
- Plant response rating, Galium [7]: 100
- Galium plant response rating [7]: 100
- Plant response rating, Blackgrass [8]: 70
- Blackgrass plant response rating [8]: 80
- Plant response rating, Pigweed [9, 20]: 80
- Pigweed plant response rating [9, 21]: 90
- Pigweed plant response rating [9, 22]: 60
- Plant response rating, Pigweed [9, 23]: 90
- Plant response rating, Wheat [10]: 20
- Wheat plant response rating [10]: 40
- Plant response rating, Ryegrass, Italian [11, 24]: 80
- Ryegrass, Italian plant response rating [11, 21]: 100
- Ryegrass, Italian plant response rating [11, 22]: 90
- Plant response rating, Ryegrass, Italian [11, 23]: 90
